Like-named read-outs stand apart in the source and are kept apart here.
Legend:
S. aureus ATCC 25923 = assay: broth microdilution antimicrobial activity, S. aureus reference strain; format: cell-based, Staphylococcus aureus; details: for IC50 / activity at 100 µM: Staphylococcus aureus; for IC50: ATCC25923, S. aureus ATCC 25923, mean [95% confidence interval]
Protocol: (§1) Reference bacterial strains of Staphylococcus aureus (ATCC 25923), Escherichia coli (ATCC 25922), and Candida albicans (ATCC 10231) were used in this study as Gram-positive, Gram-negative, and fungal models, respectively. These reference strains were purchased from the American Type Culture Collection (ATCC, Manassas, VA, USA); bacterial cultures were routinely grown at 37 °C on 5% blood agar plate, while fungal cultures on Sabouraud Dextrose Agar (Biolife Italiana S.r.l., Milan, Italy).
(§2) The dry powder of the isatin derivatives was resuspended in dimethylsulfoxide (DMSO) at 20 mM and used as stock solutions. For biological investigations, compounds were used in the range 100–0.78 µM, and the solvent in the corresponding percentage range.
(§3) The antimicrobial activity of the compounds was assessed by a well-established broth microdilution procedure in microtiter plates and in compliance with the Clinical and laboratory Standard Institute (CLSI) guidelines (Clinical and Laboratory Standards Institute, Wayne, PA, USA). In short, microbial inocula were prepared at 0.5 McFarland in PBS and, subsequently, bacterial suspensions were diluted 1:200 in Mueller–Hinton broth (Sigma-Aldrich, St. Louis, MO, USA), while fungal inoculum was diluted 1:20 in RPMI-1640 medium (Gibco®, ThermoFisher Scientific Inc., Waltham, MA, USA), containing 2% glucose and 0.3% levo-glutamine buffered to pH 7.0 with 0.165 M 3-(N-morpholino)propanesulfonic acid (MOPS). A total of 100 µL of these microbial suspensions were introduced in a 96-well microplate and incubated with 100 µL of the compounds, two-fold serially diluted in the range of 100–0.19 µM. Positive controls (microbial suspensions in regular media), negative controls (only compounds), and solvent controls (microbial suspensions incubated with DMSO dilutions) were included in the tests. The plate was incubated at 37 °C for 24 h, and subsequently, the optical density at 630 nm (OD630nm) was spectrophotometrically measured. Each experiment was carried out with three technical replicates (i.e., three wells per sample) and repeated at least two times for statistical power. […] IC50 values, corresponding to the concentration of the compound giving rise to an inhibition of growth of 50%, were obtained by interpolation on dose–response curves generated by plotting the percentages of growth inhibition, relative to the positive control (set to 100% of growth), as a function of the tested concentrations (on a logarithm scale). Statistical analysis was carried out using GraphPad Prism version 9.4.1 for Windows (GraphPad Software, San Diego, CA, USA, www.graphpad.com).

C. albicans ATCC 10231 = assay: broth microdilution antimicrobial activity, C. albicans reference strain; format: cell-based, Candida albicans; details: Candida albicans
Protocol: as §1, §2, §3

[1] = tested on: Vero cell line (ATCC CCL-81); assay: cell viability and proliferation assay (WST8/CCK-8); format: cell-based; details: for viability at 100 µM: Chlorocebus sabaeus, Vero, 48 h, read-out: Cell proliferation, Vero
Protocol: (§4) Vero cell line (ATCC CCL-81) was selected as the model system to assess the effect of the isatin hybrids on normal epithelial cells, and a previously established protocol was used with minor modifications. Briefly, cells were cultured in RPMI-1640 medium supplemented with 10% fetal bovine serum (FBS) (Carlo Erba Reagents, Milan, Italy), 100 U/mL penicillin, and 100 µg/mL streptomycin at 37 °C with 5% CO2. For experiments, cells were seeded into 96-well plates at 10^4 cells/well, and incubated at 37 °C for 24 h. Following washes with PBS, the cell monolayer was incubated with 100 µL of medium containing the 2-fold serial dilutions of the compounds. Both untreated cells and cells incubated with medium containing solvent dilutions were included in each experiment as controls. The cell viability was assessed by a WST8-based assay according to the manufacturer’s instructions (CCK-8, Cell Counting Kit-8, Dojindo Molecular Technologies, Rockville, MD, USA). After 48 h of incubation, culture medium was removed from each well, the monolayer was washed with PBS, and 100 µL of fresh medium containing 10 µL of CCK-8 solution were added. After 2 h at 37 °C, the OD450nm was read, and data were expressed as the percentage of the cell viability relative to the untreated controls. The CC50 was obtained from the corresponding dose–response curves generated, as previously reported for IC50 values.

E. coli ATCC 25922 = assay: broth microdilution antimicrobial activity, E. coli reference strain; format: cell-based, Escherichia coli; details: Escherichia coli
Protocol: as §1, §2, §3

[2] = cell viability and proliferation assay (WST8/CCK-8); format: cell-based; details: African green monkey, Vero cells (ATCC CCL-81); Vero cells; mean [95% confidence interval]
Protocol: as §4

[3] = ATCC10231, 100 μM, growth relative to positive control, mean ± SD, read-out: Microbial growth, C. albicans
[4] = ATCC25923, 100 μM, growth relative to positive control, mean ± SD, read-out: Microbial growth, S. aureus
[5] = 100 μM, viability relative to untreated controls, mean ± SD
[6] = ATCC25922, 100 μM, growth relative to positive control, mean ± SD, read-out: Microbial growth, E. coli
[7] = ATCC10231, read-out: Microbial growth, C. albicans
[8] = ATCC25923, read-out: Microbial growth, S. aureus
[9] = ATCC25922, read-out: Microbial growth, E. coli

Row | Structure (SMILES) | activity at 100 µM (C. albicans ATCC 10231; [3]) [%] | activity at 100 µM (S. aureus ATCC 25923; [4]) [%] | viability at 100 µM [1, 5] [%] | activity at 100 µM (E. coli ATCC 25922; [6]) [%] | also measured
1 | CC1(C)S[C@@H]2[C@H](NC(=O)[C@H](N)c3ccccc3)C(=O)N2[C@H]1C(=O)O [AMP, ampicillin, reference compound] | – | – | – | – | IC50 (S. aureus ATCC 25923): 2.56 µM
2 | O=C1N(Cc2ccccc2)c2ccccc2C1(c1c(Cl)nc2sccn12)c1c(Cl)nc2sccn12 [Compound 13, 1-Benzyl-3,3-bis(6-chloroimidazo[2,1-b]thiazol-5-yl)indolin-2-one] | 113.7 ± 0.7 | 92 ± 4 | 56.8 ± 0.1 | 96.2 ± 4 | Cell proliferation, Vero [1, 5]: less active
3 | Cc1cn2c(C3(c4c(Cl)nc5sc(C)cn45)C(=O)Nc4cc(F)ccc43)c(Cl)nc2s1 [Compound 8, 3,3-bis(6-Chloro-2-methylimidazo[2,1-b]thiazol-5-yl)-6-fluoroindolin-2-one] | 64.2 ± 4.3 | 97.9 ± 2.8 | 75.2 ± 2.5 | 99.8 ± 2.6 | –
4 | Cc1cn2c(C3(c4c(Cl)nc5sc(C)cn45)C(=O)Nc4cc(I)ccc43)c(Cl)nc2s1 [Compound 10, 3,3-bis(6-Chloro-2-methylimidazo[2,1-b]thiazol-5-yl)-6-iodoindolin-2-one] | 59.6 ± 0.4 | 87.7 ± 2.5 | 78.8 ± 5.5 | 94.3 ± 2.7 | –
5 | O=C1Nc2cc(I)ccc2C1(c1c(Cl)nc2sccn12)c1c(Cl)nc2sccn12 [Compound 9, 3,3-bis(6-Chloroimidazo[2,1-b]thiazol-5-yl)-6-iodoindolin-2-one] | 63.7 ± 1.2 | 80.2 ± 2.6 | 98.2 ± 1.5 | 98.3 ± 2.5 | –
6 | Cc1cn2c(C3(c4c(Cl)nc5sc(C)cn45)C(=O)N(Cc4ccc(Cl)cc4)c4ccccc43)c(Cl)nc2s1 [Compound 4, 3,3-bis(6-Chloro-2-methylimidazo[2,1-b]thiazol-5-yl)-1-(4-chlorobenzyl)indolin-2-one] | 125 ± 6.3 | 98.7 ± 0.8 | 116 ± 4 | 99 ± 2.9 | –
7 | Cc1cn2c(C3(c4c(Cl)nc5sc(C)cn45)C(=O)N(CC=Cc4ccccc4)c4ccccc43)c(Cl)nc2s1 [Compound 16, 3,3-bis(6-Chloro-2-methylimidazo[2,1-b]thiazol-5-yl)-1-cinnamylindolin-2-one] | 60.3 ± 1.1 | 69.1 ± 4.3 | 93.3 ± 1.9 | 69.2 ± 0.9 | –
8 | Cc1cn2c(C3(O)C(=O)Nc4cccc(I)c43)c(Cl)nc2s1 (centres unmarked) [Compound 20, 3-(6-Chloro-2-methylimidazo[2,1-b]thiazol-5-yl)-3-hydroxy-4-iodoindolin-2-one] | – | – | – | – | activity at 100 µM (C. albicans ATCC 10231; [7]): 108 ± 2.7%; activity at 100 µM (S. aureus ATCC 25923; [8]): 104 ± 4%; viability at 100 µM [1]: 101 ± 2.4%; activity at 100 µM (E. coli ATCC 25922; [9]): 98 ± 1.3%
9 | O=C1N(CC=Cc2ccccc2)c2ccccc2C1(c1c(Cl)nc2sccn12)c1c(Cl)nc2sccn12 [Compound 15, 3,3-bis(6-Chloroimidazo[2,1-b]thiazol-5-yl)-1-cinnamylindolin-2-one] | 60.7 ± 1.7 | < 30 | 101 ± 1.5 | 69.5 ± 1.8 | IC50 (S. aureus ATCC 25923): 90.1 µM; CC50 at 48 h [2]: > 100 µM
10 | Cc1cn2c(C3(c4c(Cl)nc5sc(C)cn45)C(=O)N(Cc4ccccc4)c4ccccc43)c(Cl)nc2s1 [Compound 14, 1-Benzyl-3,3-bis(6-chloro-2-methylimidazo[2,1-b]thiazol-5-yl)indolin-2-one] | 116 ± 1.2 | 107 ± 3.9 | 104 ± 1.9 | 99 ± 0.4 | –
11 | CNC(C)C1CCC(N)C(OC2C(N)CC(N)C(OC3OCC(C)(O)C(NC)C3O)C2O)O1 (centres unmarked) [GMN, gentamicin, reference compound] | – | – | – | – | IC50 (S. aureus ATCC 25923): 4 µM
12 | O=C1Nc2ccc(F)cc2C1(c1c(Cl)nc2sccn12)c1c(Cl)nc2sccn12 [Compound 5, 3,3-bis(6-Chloroimidazo[2,1-b]thiazol-5-yl)-5-fluoroindolin-2-one] | 102 ± 1.5 | < 30 | 43.5 ± 3.3 | 98.9 ± 1.4 | SI (selectivity index, CC50/IC50) (S. aureus ATCC 25923; CC50 Vero / IC50 S. aureus): 1.5; IC50 (S. aureus ATCC 25923): 75.6 µM; CC50 at 48 h [2]: 116 µM
13 | COc1cccc2c1C(=O)c1c(O)c3c(c(O)c1C2=O)C[C@@](O)(C(=O)CO)C[C@@H]3O[C@H]1C[C@H](N)[C@H](O)[C@H](C)O1 [DOX, doxorubicin, reference compound] | – | – | – | – | CC50 at 48 h [2]: 70.6 µM
14 | Cc1cn2c(C3(c4c(Cl)nc5sc(C)cn45)C(=O)Nc4cc(OC(F)(F)F)ccc43)c(Cl)nc2s1 [Compound 12, 3,3-bis(6-Chloro-2-methylimidazo[2,1-b]thiazol-5-yl)-6-(trifluoromethoxy)indolin-2-one] | 118.1 ± 0.2 | 110 ± 12.8 | 56.1 ± 1.1 | 96.6 ± 1 | –
15 | Cc1cn2c(C3(c4c(Cl)nc5sc(C)cn45)C(=O)Nc4ccc(F)cc43)c(Cl)nc2s1 [Compound 6, 3,3-bis(6-Chloro-2-methylimidazo[2,1-b]thiazol-5-yl)-5-fluoroindolin-2-one] | 101 ± 1.9 | 101 ± 10.1 | 38.2 ± 1.5 | 98.7 ± 0.9 | –
16 | O=C1Nc2cccc(C(F)(F)F)c2C1(O)c1c(Cl)nc2sccn12 (centres unmarked) [Compound 17, 3-(6-Chloroimidazo[2,1-b]thiazol-5-yl)-3-hydroxy-4-(trifluoromethyl)indolin-2-one] | – | – | – | – | activity at 100 µM (C. albicans ATCC 10231; [7]): 132 ± 3.9%; activity at 100 µM (S. aureus ATCC 25923; [8]): 149 ± 3.8%; viability at 100 µM [1]: 103.1 ± 1%; activity at 100 µM (E. coli ATCC 25922; [9]): 104 ± 1.6%
17 | O=C1Nc2cc(F)ccc2C1(c1c(Cl)nc2sccn12)c1c(Cl)nc2sccn12 [Compound 7, 3,3-bis(6-Chloroimidazo[2,1-b]thiazol-5-yl)-6-fluoroindolin-2-one] | 81.1 ± 0.7 | 76.9 ± 1.5 | 88.2 ± 1.9 | 106 ± 2.1 | –
18 | COc1ccc2c(c1)C(c1c(Cl)nc3sc(C)cn13)(c1c(Cl)nc3sc(C)cn13)C(=O)N2 [Compound 3, 3,3-bis(6-Chloro-2-methylimidazo[2,1-b]thiazol-5-yl)-5-methoxyindolin-2-one] | 101 ± 3.6 | 104 ± 8.5 | 90.3 ± 4.2 | 97 ± 1.8 | –
19 | Cc1cn2c(C3(O)C(=O)Nc4cccc(C(F)(F)F)c43)c(Cl)nc2s1 (centres unmarked) [Compound 18, 3-(6-Chloro-2-methylimidazo[2,1-b]thiazol-5-yl)-3-hydroxy-4-(trifluoromethyl)indolin-2-one] | – | – | – | – | activity at 100 µM (C. albicans ATCC 10231; [7]): 97.1 ± 0.9%; activity at 100 µM (S. aureus ATCC 25923; [8]): 101 ± 3.1%; viability at 100 µM [1]: 93.1 ± 2.9%; activity at 100 µM (E. coli ATCC 25922; [9]): 109 ± 3.5%
20 | O=C1Nc2cccc(I)c2C1(O)c1c(Cl)nc2sccn12 (centres unmarked) [Compound 19, 3-(6-Chloroimidazo[2,1-b]thiazol-5-yl)-3-hydroxy-4-iodoindolin-2-one] | – | – | – | – | activity at 100 µM (C. albicans ATCC 10231; [7]): 131 ± 7.5%; activity at 100 µM (S. aureus ATCC 25923; [8]): 148 ± 4.8%; viability at 100 µM [1]: 98.9 ± 2.6%; activity at 100 µM (E. coli ATCC 25922; [9]): 95.2 ± 2.6%
